Reference: US20220160705A1, “METHODS FOR CONTROLLING PROSTAGLANDIN-MEDIATED BIOLOGICAL PROCESSES” (Cornell University, priority 2019, published 2022)
“Also recorded” adds a separate entry of the source.

Columns and labels:
IRE1α-XBP1 signaling = test: Xbp1s and Ptges mRNA in peritoneal leukocytes after acetic acid injection (RT-qPCR); assay type: in vivo, C57BL/6J mice; settings: i.p. 6 hours and 30 minutes before 0.9% v/v acetic acid; KIRA6 25 mg/kg, MKC8866 20 mg/kg; vs vehicle
Description: Total RNA was isolated using RNeasy Mini kit or QIAzol lysis reagent (Qiagen) according to the manufacturer's instructions. RNA (0.1-1 μg) was reverse-transcribed to generate cDNA using the qScript cDNA synthesis kit (Quantabio). Quantitative RT-PCR was performed using PerfeCTa SYBR green fastmix (Quantabio) and TaqMan Universal PCR master mix (Life Technologies) on a QuantStudio 6 Flex real-time PCR system (Applied Biosystems). Normalized gene expression was calculated by comparative threshold cycle method using ACTB or Actb as a control. Xbp1 splicing assays were performed as described by Lee et al. (Proc Natl Acad Sci USA 100, 9946 (Aug. 19, 2003)). PCR products were separated by electrophoresis through a 2.5% agarose gel and visualized by ethidium bromide staining. Primers used in this study are described in Table 9.
(§1) To determine if pharmacological disabling of IRE1α-XBP1 signaling could reduce inflammatory visceral pain, two commercially available inhibitors of IRE1α were employed: the kinase domain-specific inhibitor KIRA6 (25 mg/kg) and the RNAse domain-specific inhibitor MKC8866 (20 mg/kg).
(§2) These inhibitors were independently administered intraperitoneally to C57BL/6J mice 6 hours and 30 minutes before acetic acid injection, and writhing behaviors were recorded for 30 minutes.

C57BL/6J mice [1] = test: Paw incision model of post-surgical pain, behavioral tests; assay type: in vivo; settings: i.p. 6 hours and 30 minutes before paw incision, KIRA6 25 mg/kg, MKC8866 20 mg/kg; for flinching activity after paw incision / grimace score post-surgery / guarding score post-surgery / hind paw weight bearing distribution after paw incision / mechanical hypersensitivity (mechanical threshold) after paw incision / rearing activity after paw incision: Celecoxib 20 mg/kg, vs vehicle; for post-operative pain behaviors: figure legend
Description: Plantar incision surgery was performed as described by Pogatzki & Raja (Anesthesiology 99, 1023 (October 2003)). Briefly, mice were anesthetized with isoflurane in oxygen (4% induction, 1.5%-2% for maintenance) and the right hind paw was aseptically cleaned with 10% povidone-iodine solution. Then, a 5 mm incision was made in the glabrous hind-paw skin from the heel to the base of the toes using a No. 11 scalpel and sterile technique. The underlying muscle and ligaments were elevated with a curved forceps and stretched for 6-8 seconds, without incising them. The incision was closed using 5.0 nylon mattress sutures.
(§3) All behavioral measurements were performed by a blinded observer before and after surgery (postoperative days 1-21) or acetic acid intraperitoneal injection (15-30 min). Animals were acclimated to the testing devices and/or places for 3 days, and baseline measurements were taken for at least 4 consecutive days before the surgery or acetic acid.
Mice were placed in individual acrylic chambers on an elevated mesh floor for 30-45 min before testing. Two spontaneous pain-relate behaviors were evaluated, rearings and paw flinches. Following the acclimatization period, the number of total vertical rearings and paw flinches were quantified during a 2-min period. Vertical rearings were defined as the number of times that the animal stood supporting its weight on both hind limbs. Vertical rearings are a normal behavior in rodents, thus a reduction of this behavior is indicative of a protective way to prevent pain due to movement, which mimics pain induced by surgeries in humans. Spontaneous flinching of the affected paw was quantified every time that the animal shacked the affected paw without any stimulation. Flinches of the injured paw is a pain-related behavior that is indicative of breakthrough pain, similar to intense spontaneous spike of pain in humans with postoperative pain.
Mechanical hypersensitivity was assessed after quantification of vertical rearings and spontaneous flinching. Mechanical withdrawal thresholds were calculated using the up-down method and applying force with calibrated Von Frey filaments (0.07-g, 0.17-g, 0.40-g, 0.60-g, 1.04-g, 1.37-g, and 2.0-g, Stoeling, Wood Dale, Ill., USA) to the plantar aspect of the paw for 5 seconds. Paw withdraws or flinching in response to a given applied force was noted as a positive response.
Hind paw weight bearing distribution was determined using an incapacitance tester apparatus (Stoelting, Ill., version 5.64). This is a test for non-reflexive behaviors that represents a spontaneous pain-related behavior that mimics postoperative pain behaviors in humans (protection of the surgery site from normal activities). Before surgery, animals were habituated for at least 3 days to the apparatus, in which animals stand with each hind paw resting on individual weight plates inside an acrylic chamber. The apparatus measures the body weight distributed between the two hind paws over a 3 second period and provides the average measurement. The average value of each hind paw was used to determine the weight distribution ratio (ispsilateral/contralateral side). A ratio below one indicates a greater weight bearing on the contralateral paw and was therefore considered as a pain-related behavior.
To determine whether pharmacological targeting of IRE1α could also modulate post-surgical pain. KIRA6 (FIG. 9A-9F) or MKC8866 (FIG. 10) was administered i.p. 6 hours and 30 minutes prior to paw incision surgery, and pain responses were monitored thereafter. […] Consistent with our results using conditional IRE1α-deficient mice, mechanical hypersensitivity remained unaltered upon administration of IRE1α inhibitors (FIGS. 9F and 10F). As a positive control, we administered equimolar amounts (20 mg/kg) of Celecoxib following the same scheme and route described above. […]

C57BL/6J mice [2] = test: Acetic acid-induced writhing model of inflammatory visceral pain; assay type: in vivo; settings: i.p. 6 hours and 30 minutes before 0.9% v/v acetic acid (5 ml/kg); recorded for 30 minutes; KIRA6 25 mg/kg, MKC8866 20 mg/kg, Celecoxib 20 mg/kg; vs vehicle
Description: as §3
Writhing spontaneous pain behaviors were evaluated after intraperitoneal injection of 0.9% acetic acid (v/v, 5 ml/kg). The number of writhing responses was quantified immediately after acetic acid injection for 30 min in 5 min intervals by an observer blinded to genotype. Writings induced acetic acid are overt stretching behaviors indicative of abdominal pain, a phenomenon that is dependent upon mPGES-1 and PGE2 (Kamei et al. J Biol Chem 279, 33684 (Aug. 6, 2004); Trebino et al. Proc Nat Acad Sci USA 100, 9044 (Jul. 22, 2003)).
as §1, §2

| Compound | Ptges expression in peritoneal leukocytes (IRE1α-XBP1 signaling) | Xbp1s expression in peritoneal leukocytes (IRE1α-XBP1 signaling) | flinching activity after paw incision (C57BL/6J mice [1]) | grimace score post-surgery (C57BL/6J mice [1]) | guarding score post-surgery (C57BL/6J mice [1]) | hind paw weight bearing distribution after paw incision (C57BL/6J mice [1]) | mechanical hypersensitivity (mechanical threshold) after paw incision (C57BL/6J mice [1]) | rearing activity after paw incision (C57BL/6J mice [1]) | post-operative pain behaviors (C57BL/6J mice [1]) | number of writhings after acetic acid injection (C57BL/6J mice [2]) |
| --- | --- | --- | --- | --- | --- | --- | --- | --- | --- | --- |
| CC(C)(C)c1nc(-c2ccc(NC(=O)Nc3cccc(C(F)(F)F)c3)c3ccccc23)c2c(N)nccn12 [KIRA6] | significantly reduced | significantly reduced | reduced | significantly reduced | significantly reduced | more balanced | unaltered | unchanged | reduces | reduced; also recorded: decreased |
| COc1cc2c(C)c(CC(=O)N3CCOCC3)c(=O)oc2c(C=O)c1O [MKC8866] | significantly reduced | significantly reduced | reduced | significantly reduced | significantly reduced | more balanced | unaltered | unchanged | reduces | reduced; also recorded: decreased |
